Experimental data as given in ChEMBL document CHEMBL1141601, “Exploring the molecular basis of action of the passive antiglucocorticoid 21-hydroxy-6,19-epoxyprogesterone” (J Med Chem, 2008).
Active and inactive are the calls of the source.

Key:
Liver = assay: Effect on increase in glycogen deposition in rat liver; format: functional, tissue-based
[1] = target: T1, Tyrosine aminotransferase (Homo sapiens) (UniProt P17735); assay: Induction of tyrosine aminotransferase
T1 sequence (whole entry): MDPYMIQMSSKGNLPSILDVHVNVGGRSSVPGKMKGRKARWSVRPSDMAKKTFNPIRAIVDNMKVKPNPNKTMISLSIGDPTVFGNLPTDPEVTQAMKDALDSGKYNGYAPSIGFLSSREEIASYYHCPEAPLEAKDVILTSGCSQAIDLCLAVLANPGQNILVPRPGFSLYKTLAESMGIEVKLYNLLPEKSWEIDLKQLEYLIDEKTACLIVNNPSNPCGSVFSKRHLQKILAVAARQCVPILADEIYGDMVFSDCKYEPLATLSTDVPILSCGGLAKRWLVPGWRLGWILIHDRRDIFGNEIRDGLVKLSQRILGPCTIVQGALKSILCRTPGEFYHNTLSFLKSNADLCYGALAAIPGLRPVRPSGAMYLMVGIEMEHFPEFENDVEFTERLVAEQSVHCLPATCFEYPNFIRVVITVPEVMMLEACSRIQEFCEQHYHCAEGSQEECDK

[2] = target: T2, Glucocorticoid receptor (Homo sapiens) (UniProt P04150); assay: Activity at GR expressed in mouse L929 cells at 10 uM by transactivation assay relative to control; format: cell-based
T2 sequence (whole entry): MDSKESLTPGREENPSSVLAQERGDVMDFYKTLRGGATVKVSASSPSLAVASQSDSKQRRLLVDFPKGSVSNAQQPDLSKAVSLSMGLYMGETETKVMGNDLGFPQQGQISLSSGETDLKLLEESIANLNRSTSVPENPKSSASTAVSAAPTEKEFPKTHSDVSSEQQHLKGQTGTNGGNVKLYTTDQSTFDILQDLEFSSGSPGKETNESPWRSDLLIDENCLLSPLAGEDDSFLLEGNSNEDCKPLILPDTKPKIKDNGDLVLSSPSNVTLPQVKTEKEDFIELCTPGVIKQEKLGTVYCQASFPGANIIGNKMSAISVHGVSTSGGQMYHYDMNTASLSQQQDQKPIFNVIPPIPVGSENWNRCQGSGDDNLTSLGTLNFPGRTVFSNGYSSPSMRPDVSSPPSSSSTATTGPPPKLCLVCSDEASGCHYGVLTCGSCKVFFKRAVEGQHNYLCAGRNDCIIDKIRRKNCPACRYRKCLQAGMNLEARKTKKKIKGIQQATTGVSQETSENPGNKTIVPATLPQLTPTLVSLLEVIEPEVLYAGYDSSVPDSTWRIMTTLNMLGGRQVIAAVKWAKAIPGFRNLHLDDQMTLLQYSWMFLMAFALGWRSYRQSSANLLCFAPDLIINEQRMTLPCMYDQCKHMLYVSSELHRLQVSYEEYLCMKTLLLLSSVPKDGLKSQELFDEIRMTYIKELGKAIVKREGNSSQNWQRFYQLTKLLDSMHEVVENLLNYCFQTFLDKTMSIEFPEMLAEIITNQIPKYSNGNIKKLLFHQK

Measured: Activity

C[C@]12CC[C@H]3[C@@H](CC4OC[C@@]35CCC(=O)C=C45)[C@@H]1CC[C@@H]2C(=O)CO
inactive: all assays above
